Test results reported in US20260098053A1, “COMPOSITIONS AND METHODS FOR TREATING CNS DISORDERS” (SAGE THERAPEUTICS, INC., priority 2019, published 2026).

target: [35S]-TBPS binding, rat brain cortical membranes; assay: Steroid inhibition of [35S]-TBPS binding; conditions: Table 4, 3 nM [35S]-TBPS, in the presence of 5 mM GABA, read-out: TBPS IC50
Procedure: [35S]-t-Butylbicyclophosphorothionate (TBPS) binding assays using rat brain cortical membranes in the presence of 5 mM GABA has been described (Gee et al, J. Pharmacol. Exp. Ther. 1987, 241, 346-353; Hawkinson et al, Mol. Pharmacol. 1994, 46, 977-985; Lewin, A. H et al., Mol. Pharmacol. 1989, 35, 189-194).
Briefly, cortices are rapidly removed following decapitation of carbon dioxide-anesthetized Sprague-Dawley rats (200-250 g). The cortices are homogenized in 10 volumes of ice-cold 0.32 M sucrose using a glass/teflon homogenizer and centrifuged at 1500×g for 10 min at 4° C. The resultant supernatants are centrifuged at 10,000×g for 20 min at 4° C. to obtain the P2 pellets. The P2 pellets are resuspended in 200 mM NaCl/50 mM Na—K phosphate pH 7.4 buffer and centrifuged at 10,000×g for 10 min at 4° C. This washing procedure is repeated twice and the pellets are resuspended in 10 volumes of buffer. Aliquots ([…]) of the membrane suspensions are incubated with 3 nM [^35S]-TBPS and […] aliquots of test drug dissolved in dimethyl sulfoxide (DMSO) (final 0.5%) in the presence of 5 mM GABA. The incubation is brought to a final volume of 1.0 mL with buffer. Nonspecific binding is determined in the presence of […] and ranged from 15 to 25%. Following a 90 min incubation at room temp, the assays are terminated by filtration through glass fiber filters (Schleicher and Schuell No. 32) using a cell harvester (Brandel) and rinsed three times with ice-cold buffer. Filter bound radioactivity is measured by liquid scintillation spectrometry. Non-linear curve fitting of the overall data for each drug averaged for each concentration is done using Prism (GraphPad). […] The concentration of test compound producing 50% inhibition (IC50) of specific binding and the maximal extent of inhibition (Imax) are determined for the individual experiments with the same model used for the overall data and then the means±SEM.s of the individual experiments are calculated.
Various compounds are or can be screened to determine their potential as modulators of [^35S]-TBPS binding in vitro. These assays are or can be performed in accordance with the above

| SMILES | IC50 [nM] |
| --- | --- |
| COC[C@@]1(O)CCC[C@@]2(C)[C@@H](CC[C@@H]3[C@@H]2CC[C@]2(C)[C@@H](C(=O)Cn4cc(C#N)cn4)CCC[C@@H]32)C1 [Example 43] | < 100 |
| C[C@@]1(O)CCC[C@H]2[C@H](CC[C@@H]3[C@@H]2CC[C@]2(C)[C@@H](C(=O)Cn4cc(C#N)cn4)CCC[C@@H]32)C1 [Example 10] | < 100 |
| CC[C@]12CC[C@H]3[C@@H](CC[C@@H]4CC[C@](C)(O)CC[C@@H]43)[C@@H]1CC[C@@H]2C(=O)Cn1cc(C#N)cn1 [Example 33] | 100 to 1000 |
| CC[C@]12CC[C@@](C)(O)C[C@H]1CC[C@H]1[C@@H]3CCC[C@H](C(=O)Cn4cc(C#N)cn4)[C@@]3(C)CC[C@@H]12 [Example 19, 1-(2-((1S,4aS,4bS,6aR,8R,10aS,10bS,12aS)-10a-ethyl-8-hydroxy-8,12a-dimethyloctadecahydrochrysen-1-yl)-2-oxoethyl)-1H-pyrazole-4-carbonitrile] | < 100 |
| CC[C@]12CC[C@H]3[C@@H](CC[C@@H]4CC[C@@](O)(COC)CC[C@@H]43)[C@@H]1CC[C@@H]2C(C)=O [Example 32, 1-((1S,3aS,3bR,5aR,8S,10aS,10bR,12aS)-12a-ethyl-8-hydroxy-8-(methoxymethyl)octadecahydrocyclohepta[a]cyclopenta[f]naphthalen-1-yl)ethanone] | 100 to 1000 |
| C[C@]1(O)CC[C@@H]2CC[C@@H]3[C@H](CC[C@]4(C)[C@@H](C(=O)Cn5cc(C#N)cn5)CCC[C@@H]34)[C@@]2(C)CC1 [Example 44, 1-(2-((1S,4aS,4bR,6aS,9S,11aS,11bS,13aS)-9-hydroxy-9,11a,13a-trimethyloctadecahydro-1H-cyclohepta[a]phenanthren-1-yl)-2-oxoethyl)-1H-pyrazole-4-carbonitrile] | 100 to 1000 |
| Cc1nnnn1CC(=O)[C@H]1CCC[C@H]2[C@@H]3CC[C@@H]4C[C@](C)(O)CCC[C@@H]4[C@H]3CC[C@]12C [Example 12, 1-((1S,4aS,4bR,6aR,8R,11aS,11bR,13aS)-8-hydroxy-8,13a-dimethyloctadecahydro-1H-cyclohepta[a]phenanthren-1-yl)-2-(5-methyl-1H-tetrazol-1-yl)ethan-1-one] | < 100 |
| CC[C@]12CC[C@@](C)(O)C[C@H]1CC[C@H]1[C@@H]3CCCC[C@H](C(C)=O)[C@@]3(C)CC[C@@H]12 [Example 22] | < 100 |
| Cc1nnn(CC(=O)[C@H]2CCCC[C@H]3[C@@H]4CC[C@@H]5C[C@](C)(O)CCC[C@]5(C)[C@H]4CC[C@]23C)n1 [Example 62, 1-((1S,5aS,5bR,7aR,9R,12aS,12bS,14aS)-9-hydroxy-9,12a,14a-trimethylicosahydrodicyclohepta[a,f]naphthalen-1-yl)-2-(5-methyl-2H-tetrazol-2-yl)ethanone] | < 100 |
| CC[C@]12CCCC(C)(O)C[C@H]1CC[C@H]1[C@@H]3CC[C@H](C(=O)Cn4cc(C#N)cn4)[C@@]3(C)CC[C@@H]12 (stereo in doubt) [Example 20, 1-(2-((1S,3aS,3bS,5aR,7S,10aS,10bS,12aS)-10a-ethyl-7-hydroxy-7,12a-dimethyloctadecahydrocyclohepta[a]cyclopenta[f]naphthalen-1-yl)-2-oxoethyl)-1H-pyrazole-4-carbonitrile] | < 100 |
| CC[C@]12CC[C@H]3[C@@H](CC[C@@H]4C[C@](C)(O)CC[C@@H]43)[C@@H]1CCC[C@@H]2C(=O)Cn1cc(C#N)cn1 [Example 28, 1-(2-((1S,4aS,4bR,6aR,8R,10aS,10bR,12aS)-12a-ethyl-8-hydroxy-8-methyloctadecahydrochrysen-1-yl)-2-oxoethyl)-1H-pyrazole-4-carbonitrile] | < 100 |
| C[C@]1(O)CC[C@H]2CC[C@@H]3[C@H](CC[C@]4(C)[C@@H](C(=O)CCn5cc(C#N)cn5)CCC[C@@H]34)[C@H]2CC1 [Example 51, 1-(3-((1S,4aS,4bR,6aR,9S,11aS,11bR,13aS)-9-hydroxy-9,13a-dimethyloctadecahydro-1H-cyclohepta[a]phenanthren-1-yl)-3-oxopropyl)-1H-pyrazole-4-carbonitrile] | 100 to 1000 |
| Cc1nnnn1CC(=O)[C@@H]1CCCC[C@H]2[C@@H]3CC[C@@H]4C[C@](C)(O)CCC[C@]4(C)[C@H]3CC[C@]12C [Example 65, 1-((1R,5aS,5bR,7aR,9R,12aS,12bS,14aS)-9-hydroxy-9,12a,14a-trimethylicosahydrodicyclohepta[a,f]naphthalen-1-yl)-2-(5-methyl-1H-tetrazol-1-yl)ethanone] | > 1000 |
| C[C@@]1(O)CCC[C@@]2(C)[C@H](CC[C@@H]3[C@@H]2CC[C@]2(C)[C@@H](C(=O)Cn4cc(C#N)cn4)CCCC[C@@H]32)C1 [Example 60] | < 100 |

same assay, conditions: Table 5, 3 nM [35S]-TBPS, in the presence of 5 mM GABA, read-out: TBPS IC50

| SMILES | IC50 [nM] |
| --- | --- |
| CC[C@]12CC[C@@](C)(O)C[C@H]1CC[C@H]1[C@@H]3CC[C@H](C(=O)Cn4nnnc4C)[C@H]3CC[C@@H]12 [Example 82, 1-((3R,5R,8S,9S,10S,13S,14S,17S)-10-ethyl-3-hydroxy-3-methylhexadecahydro-1H-cyclopenta[a]phenanthren-17-yl)-2-(5-methyl-1H-tetrazol-1-yl)ethanone] | < 100 |
| Cc1nnnn1CC(=O)[C@H]1CC[C@H]2[C@@H]3CC[C@@H]4C[C@](C)(O)CC[C@@H]4[C@H]3CC[C@@H]21 [Example 70, 1-((3R,5R,8R,9R,10S,13S,14S,17S)-3-hydroxy-3-methylhexadecahydro-1H-cyclopenta[a]phenanthren-17-yl)-2-(5-methyl-1H-tetrazol-1-yl)ethan-1-one] | < 100 |
| CC(=O)[C@H]1CCC[C@H]2[C@@H]3CC[C@@H]4C[C@](C)(O)CC[C@@H]4[C@H]3CC[C@@H]21 [Example 77, 1-((1S,4aS,4bR,6aR,8R,10aS,10bR,12aS)-8-hydroxy-8-methyloctadecahydrochrysen-1-yl)-ethanone] | < 100 |
| Cc1nnnn1CC(=O)[C@H]1CC[C@H]2[C@@H]3CC[C@H]4C[C@](C)(O)CC[C@@H]4[C@H]3CC[C@@H]21 [Example 76, 1-((3R,5S,8R,9R,10S,13S,14S,17S)-3-hydroxy-3-methylhexadecahydro-1H-cyclopenta[a]phenanthren-17-yl)-2-(5-methyl-1H-tetrazol-1-yl)ethanone] | > 1000 |
| Cc1nnnn1CC(=O)[C@H]1CCC[C@H]2[C@@H]3CC[C@H]4C[C@](C)(O)CC[C@@H]4[C@H]3CC[C@@H]21 [Example 81, 1-((1S,4aS,4bR,6aS,8R,10aS,10bR,12aS)-8-hydroxy-8-methyloctadecahydrochrysen-1-yl)-2-(5-methyl-1H-tetrazol-1-yl)ethanone] | < 100 |
| CC[C@]12CC[C@@](C)(O)C[C@H]1CC[C@H]1[C@@H]3CC[C@H](C(=O)Cn4nnc(C)n4)[C@H]3CC[C@@H]12 [Example 83, 1-((3R,5R,8S,9S,10S,13S,14S,17S)-10-ethyl-3-hydroxy-3-methylhexadecahydro-1H-cyclopenta[a]phenanthren-17-yl)-2-(5-methyl-2H-tetrazol-2-yl)ethanone] | < 100 |
| CC(=O)[C@H]1CC[C@H]2[C@@H]3CC[C@@H]4C[C@](C)(O)CC[C@@H]4[C@H]3CC[C@@H]21 [Example 66] | < 100 |
| C[C@@]1(O)CC[C@H]2[C@H](CC[C@@H]3[C@@H]2CC[C@H]2[C@H]3CC[C@H]2C(=O)Cn2cc(C#N)cn2)C1 (stereo in doubt) [Example 71] | > 1000 |

same assay, conditions: Table 6, 3 nM [35S]-TBPS, in the presence of 5 mM GABA, read-out: IC50

| SMILES | IC50 [nM] |
| --- | --- |
| C[C@@]1(O)CC[C@@]2(C3CC3)[C@H](CC[C@H]3[C@@H]4CCC[C@@H](C(=O)Cn5cc(C#N)cn5)[C@@]4(C)CC[C@@H]32)C1 [Example 86, 1-(2-((1R,4aS,4bS,6aR,8R,10aR,10bS,12aS)-10a-cyclopropyl-8-hydroxy-8,12a-dimethyloctadecahydrochrysen-1-yl)-2-oxoethyl)-1H-pyrazole-4-carbonitrile] | > 1000 |
| CC[C@]12CC[C@H]3[C@@H](CC[C@@H]4C[C@](C)(O)CC[C@@]43C3CC3)[C@@H]1CC[C@@H]2C(=O)Cn1nnnc1C [Example 92, 1-((3R,5R,8S,9S,10R,13S,14S,17S)-10-cyclopropyl-13-ethyl-3-hydroxy-3-methylhexadecahydro-1H-cyclopenta[a]phenanthren-17-yl)-2-(5-methyl-1H-tetrazol-1-yl)ethanone] | < 100 |
